In test [1] the test system is isolated rabbit aorta (contraction induced by angiotensin II). Description: Inhibition of vascular contraction in isolated rabbit aorta rings in vitro, contractions induced by angiotensin II. The note with it: based on the 3rd (submaximal) agonist concentration. On the procedure:
Rabbits of both sexes are stunned by a blow to the neck and bled out, or in some cases anesthetised with Nembutal (about 60-80 mg/kg i.v.) and sacrificed by opening the thorax. The thorax aorta is taken out, freed from adhering connective tissue, divided into 1.5 mm wide ring segments and individually transferred under an initial loading of about 3.5 g to 10 ml organ baths containing 95% 02 /5% CO2 -aerated Krebs-Henseleit nutrient solution temperature-controlled at 37° C. of the following composition: 119 mmol/l of NaCl: 2.5 mmol/l of CaCl2 ×2 H2 O; 1.2 mmol/l of KH2 PO4; 10 mmol/l of glucose; 4.8 mmol/l of KCl; 1.4 mmol/l of MgSO4 ×7 H2 O and 25 mmol/l of NaHCO3.
The contractions are measured isometrically by Statham UC2 cells by means of bridge amplifiers (ifd Mulheim or DSM Aalen) and digitalised and analysed by means of A/D converters (System 570, Keithley Munich). Agohist dose response curves (DRC) were plotted hourly. With each DRC, 3 or 4 individual concentrations are applied to the baths at an interval of 4 min. After completion of the DRC and subsequent washing-out cycles (16 times, in each case about 5 sec/min with the abovementioned nutrient solution), a 28-minute resting or incubation phase is added in the course of which the contractions usually reach the starting value again.
The height of the 3rd DRC in the normal case is used as a reference quantity for the evaluation of the test substance to be investigated in further passages, which is applied to the baths in the following DRCs in increasing dosage in each case at the start of the incubation time. In this way, each aorta ring is always stimulated for the whole day with the same agohist.
To calculate the IC50 (concentration at which the substance to be investigated causes a 50% inhibition), the effect is in each case based on the 3rd=submaximal agonist concentration.

Test [2] concerns smooth muscle cells from rats' aortas. Description: Inhibition of proliferation of smooth muscle cells (3H-thymidine incorporation). Format: cell-based. The note with it: 10^-6 M, rat aortic smooth muscle cells, 10% FCS. On the procedure:
Investigation of the inhibition of proliferation of smooth muscle cells by the compounds according to the invention
To determine the antiproliferative action of the compounds, smooth muscle cells are used that have been obtained from rats' aortas by the media explant technique [R. Ross, J. Cell. Biol. 50. 172, 1971]. The cells are innoculated into suitable culture dishes (as a rule 96-hole plates, and cultured at 37° C. for 2-3 days in medium containing added serum, 2 mM L-glutamine and 15 mM HEPES, pH 7.4, in 5% CO2. The cells are then synchronised by withdrawal of serum for 2-3 days and then stimulated into growth by serum or other factors. Test desired compounds are added simultaneously. After 16-20 hours, 1 μCi of ^3 H-thymidine is added, and after a further 4 hours, the incorporation of this substance into the TCA-precipitable DNA of the cells is determined.
On the technique in general: Uptake of a labelled nucleoside into DNA is a usual measure of proliferation.

Test [3] deals with T1, angiotensin II receptor on membrane fractions of adrenal gland cortex (bovine) (Bos taurus, UniProt P25104).
T1 construct: partially purified membrane fractions of bovine AGC using radioactive angiotensin II; from tissue; host or cells: bovine adrenal gland cortex, partially purified membrane fractions
T1 sequence (P25104 1-359): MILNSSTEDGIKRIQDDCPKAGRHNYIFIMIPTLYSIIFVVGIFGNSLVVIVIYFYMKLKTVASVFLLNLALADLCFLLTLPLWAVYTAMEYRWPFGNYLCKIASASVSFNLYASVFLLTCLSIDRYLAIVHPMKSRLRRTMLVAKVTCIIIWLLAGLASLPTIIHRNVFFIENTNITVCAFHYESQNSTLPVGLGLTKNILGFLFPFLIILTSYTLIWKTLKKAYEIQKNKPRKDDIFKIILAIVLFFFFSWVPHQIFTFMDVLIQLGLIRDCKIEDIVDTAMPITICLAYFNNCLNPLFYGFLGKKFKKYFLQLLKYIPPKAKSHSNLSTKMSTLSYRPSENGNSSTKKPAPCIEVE
The test is described as follows: Interaction with the angiotensin II receptor on membrane fractions of adrenal gland cortex (bovine), 3H-angiotensin II binding. The note with it: 3H-angiotensin II 3-5 nM, 60 min, room temperature. The text has this: Interaction of the compounds according to the invention with the angiotensin II receptor on membrane fractions of adrenal gland cortex (bovine)
Bovine adrenal gland cortices (AGC) which have been freshly removed and carefully freed from gland medulla are comminuted in sucrose solution (0.32M) with the aid of an Ultra-turrax (Janke & Kunkel, Staufen I. B.) to give a coarse membrane homogenate and are partially purified to give membrane fractions in two centrifugation steps. The receptor binding investigations are carried out on partially purified membrane fractions of bovine AGC using radioactive angiotensin II in an assay volume of 0.25 ml which, in detail, contains the partially purified membranes (50-80 μg) ^3 H-angiotensin II (3-5 nM), test buffer solution (50 mM tris, pH 7.2), 5 mM MgCl2 and the substances to be investigated. After an incubation time of 60 min at room temperature, the unbound radioactivity of the samples is separated by means of moistened glass fibre filters (Whatman GF/C) and the bound radioactivity is measured […] in a scintillation cocktail after washing the protein with ice-cold buffer solution (50 mM tris/HCl, pH 7.4, 5% PEG 6000). […]

Test [4] addresses T2, type 2 angiotensin II receptor (AT2) (Bos taurus, UniProt G5E6F7).
T2 construct: membrane fractions of bovine cerebellum; purchased NEN DuPont NED-001; host or cells: bovine cerebellum membrane fractions
T2 sequence (G5E6F7 1-362): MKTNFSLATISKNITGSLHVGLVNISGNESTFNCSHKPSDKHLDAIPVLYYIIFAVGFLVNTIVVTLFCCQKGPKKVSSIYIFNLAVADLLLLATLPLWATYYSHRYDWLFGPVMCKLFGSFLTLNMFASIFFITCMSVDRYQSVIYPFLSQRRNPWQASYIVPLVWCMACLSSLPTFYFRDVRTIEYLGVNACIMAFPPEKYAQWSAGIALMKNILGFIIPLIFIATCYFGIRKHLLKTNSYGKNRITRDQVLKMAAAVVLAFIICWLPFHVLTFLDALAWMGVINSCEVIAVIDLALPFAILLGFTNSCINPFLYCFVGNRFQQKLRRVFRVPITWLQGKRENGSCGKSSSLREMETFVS
Description: Interaction with the type 2 angiotensin II receptor (AT2) on membrane fractions of bovine cerebellum, 125I-angiotensin II binding. The note with it: bovine cerebellum membranes; 125I-angiotensin II about 0.1 nM; 60 min, 37° C. As to the method: Interaction of the compounds according to the invention with the type 2 angiotensin II receptor (AT2) on membrane fractions of bovine cerebellum
For the test, the AT2 receptor "Drug Discovery System" of NEN DuPont (Catalogue No. NED-001) is used. The test is carried out correspondingly using the test protocol additionally supplied. Receptor binding is carried out in a test volume of 235 μl, which in detail contains ^125 I-angiotensin II (about 0.1 nM), Test buffer (PBS, NaCl, EDTA, PMSF, DTT, DMSO) and the substances to be investigated. After an incubation of 60 min at 37° C., the unbound radioactivity of the samples is separated by means of moistened glass fibre filters (Whatman GF/C) and the bound radioactivity is measured […] in a scintillation cocktail after washing the protein with ice-cold buffer solution (0.9% strength NaCl). The analysis of the raw data was carried out using computer programs for the IC50 or Ki value determination (IC50 value: concentration at which the substance to be investigated causes a 50% inhibition of the specific binding of the radioligand: Ki value: IC50 value corrected for the radioactivity used).

In general, inhibition refers to the relative decrease from the control value, in per cent. In general, pKi refers to the negative decadic logarithm of the Ki, by convention in mol/L. A low value points to a large Ki.

pKi: −log10 of the molar value. ≈ marks a conversion by molar mass, not a printed value.

As to `CCCCc1nc(Cl)c(/C=C(\CC2CCCCC2)C(=O)O)n1Cc1ccc(C(C(=O)O)C2CCCCCC2)cc1` (stereo not shown) [Example 12], the “IC50 against contractions induced by angiotensin II” value (“IC50 against contractions induced” below) in test [1] is 0.046 µg/mL (≈ 0.0808 µM).

On to `CCCCc1nc(Cl)c(/C=C(\CC2CCCCC2)C(=O)OC)n1Cc1ccc(C(C(=O)N[C@H](CO)c2ccccc2)C2CCCC2)cc1` (stereo partly drawn) [Example 5, (E)-2-[4-{2-n-Butyl-4-chloro-5-(3-cyclohexyl-2-methoxyarbonyl-prop-1-en-yl)-1H-imidazol-1-methyl}phenyl]-2-cyclopentyl-acetic acid L-phenylglycinolamide], for which the inhibition at 1 µM in test [2] was 90%.

In the case of `CCCCc1nc(Cl)c(/C=C(\CC2CCCCC2)C(=O)OC)n1Cc1ccc(C(C(=O)NS(=O)(=O)c2ccc(C)cc2)C2CCCC2)cc1` (stereo not shown) [Example 6, (E)-N-4-Toluenesulphonyl-2-[4-{2-n-butyl-4-chloro-5-(3-cyclohexyl-2-methoxycarbonyl-prop-1-en-yl)-1H-imidazol-1-yl-methyl}phenyl]-2-cyclopentyl-acetamide], the pKi in test [3] was 6.12.

Regarding `CCCCc1nc(Cl)c(/C=C(\CC2CCCCC2)C(=O)O)n1Cc1ccc(C(C(=O)N[C@H](CO)c2ccccc2)C2CCCC2)cc1` (stereo partly shown) [Example 8], the pKi in test [3] is 7.10.

As for `CCCCc1nc(Cl)c(/C=C(\CC2CCCCC2)C(=O)O)n1Cc1ccc(C(C(=O)O)C2CCCC2)cc1` (racemic) [Example 4], in test [1], the “IC50 against contractions induced” value is 0.063 µg/mL (≈ 0.116 µM). Moreover, the pKi in test [4] was 6.08.

Take `CCCCc1nc(Cl)c(/C=C(\CC2CCCCC2)C(=O)O)n1Cc1ccc(C(C(=O)NS(=O)(=O)c2ccc(C)cc2)C2CCCC2)cc1` (stereo not shown) [Example 7]: the “IC50 against contractions induced” value in test [1] stood at 0.051 µg/mL (≈ 0.0735 µM).
